The nature of this data set: gradient 5% acetonitrile 3 min, to 50% in 2 min, to 85% in 15 min, held 3 min, 100 µL/min. The conditions noted are these: column: Zorbax Extend-C18 2.1 x 50 mm; eluents: water / acetonitrile, 0.1% formic acid. Put shortly:
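Mixtures of ~100 pure standards were chromatographed on a Zorbax Extend-C18 column (2.1 × 50 mm, 1.8 μm) at 100 μL/min using water and acetonitrile, each with 0.1% formic acid. Detection used a quadrupole time-of-flight mass spectrometer in positive and negative ionization mode, and data collection spanned 3 months. Retention time was obtained from adduct peaks picked computationally and each checked manually.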
`COc1ccc(NC(=O)C2CCN(S(=O)(=O)c3cc(-c4noc(C)n4)cs3)CC2)c(OC)c1`: the RP-LC retention time stood at 885 s.

In turn, `COc1cc2oc(=O)c(CC(=O)N3CCN(c4ccccn4)CC3)c(C)c2cc1OC` gave an RP-LC retention time of 588 s.

Turning to `COCCc1noc(-c2cnc3nc(C)ccc3c2Nc2ccccc2Cl)n1`, the RP-LC retention time came to 779 s.

For `Cn1c(C2CCN(S(=O)(=O)c3ccc(Cl)cc3)C2)nc2cccnc21` (stereo not given), the RP-LC retention time is 760 s.

With `CCCNC(=O)N1CCN(Cc2nc3cccnc3n2-c2ccc(F)cc2)CC1`, the RP-LC retention time stood at 604 s.

As for `O=C1CCC2(CCN1)CCN(S(=O)(=O)c1ccc(Cl)cc1)CC2`, the RP-LC retention time is 758 s.

For the compound `CCc1noc(NC(C)=O)c1-c1ccc(C)c(S(=O)(=O)N2CCN(c3ccccn3)CC2)c1`, the RP-LC retention time was determined as 665 s.

Consider `N#Cc1cccc(C(=O)N2CCOc3ccccc32)c1`, for which the RP-LC retention time was determined as 843 s.

In turn, `Cc1cc(C)nc(Nc2nc(C(=O)NCCOc3ccc(F)cc3)cs2)n1` came in with an RP-LC retention time of 842 s.

For the compound `CC(=O)N1CCc2ccccc2C1C(=O)NCc1ccc(F)cc1` (stereo not given), the RP-LC retention time stood at 762 s.

With `COc1ccc2c(c1)C1(CCN(S(=O)(=O)c3ccc(F)c(F)c3)C1)C(=O)N2C` (stereo not given), the RP-LC retention time came to 964 s.

Turning to `CCNc1nc(C)cc(N2CCN(C(=O)Nc3ccccc3)CC2)n1`, the RP-LC retention time was found to be 636 s.

The compound `CCOc1cc2c(cc1OCC)C1C(C(=O)N3CCOCC3)c3ccccc3C(=O)N1CC2` (stereo not given) registered an RP-LC retention time of 744 s.

The compound `CCCCNC(=O)c1cccc2c1CCN2C(=O)C1CC1` registered an RP-LC retention time of 764 s.

Compound `COC(=O)c1cc2c(=O)n(-c3ccc(Cl)cc3Cl)ccc2nc1C` registered an RP-LC retention time of 928 s.

`Cc1ccc(NC(=O)N2CCC(N3CCN(Cc4ccc(F)cc4)C(=O)C3=O)CC2)cc1F`: the RP-LC retention time came out at 770 s.

Consider `Cc1ccc(N2CCN(C(=O)c3ccc4c(c3)CC(=O)N4C)CC2)cc1`, for which the RP-LC retention time amounted to 796 s.

The compound `CC1CCC(NC(=O)c2ccc(Cn3cncn3)cc2)CC1` (stereo not given) had an RP-LC retention time of 726 s.

The compound `Cc1ccccc1-c1noc(C2CCCN2S(=O)(=O)c2ccc(C(C)C)cc2)n1` (stereo not given) had an RP-LC retention time of 1340 s.

Compound `Cc1cccc(-c2nnc(-c3cc(S(=O)(=O)N4CCOCC4)ccc3Cl)o2)c1` displayed an RP-LC retention time of 992 s.

Compound `Cc1ccc(CNC(=O)c2cc(C(C)C)n3nccc3n2)cc1` displayed an RP-LC retention time of 1250 s.

Regarding `O=C(Cn1cc2c(n1)CCCC2)N1CCC(Cc2ccccc2)CC1`, the RP-LC retention time was found to be 965 s.

The compound `c1ccc(-c2nc3nc4c(c(Nc5ccc6c(c5)OCCO6)n3n2)CCCC4)cc1` came in with an RP-LC retention time of 970 s.

`COc1ccc(-c2noc(CN3CCN(c4ccccn4)CC3)n2)cc1` registered an RP-LC retention time of 621 s.

With `O=C(c1ccc(-c2ccsc2)nc1)N1CCCCC1`, the RP-LC retention time is 792 s.

Compound `CSc1cccc(NC(=O)N2CCC(n3c(C)nc4cccnc43)CC2)c1` came in with an RP-LC retention time of 647 s.

Compound `CC(C)CNC(=O)c1cn(-c2ccc(-c3nc(C(C)(C)C)no3)cn2)cn1` registered an RP-LC retention time of 1020 s.

Turning to `O=C(CCC1NC(=O)c2ccccc2NC1=O)Nc1ncn[nH]1` (stereo not given), the RP-LC retention time was determined as 521 s.

For `CNS(=O)(=O)CCCOc1ccc2c(c1)OCO2`, the RP-LC retention time was 697 s.

In the case of `CC(C)c1noc(-c2ccc(-n3cnc(C(=O)NCC4CC4)c3)nc2)n1`, the RP-LC retention time worked out at 839 s.

Take `CCOc1ccc(NC(=O)CSc2nnc3c4cc(-c5ccc(C)c(C)c5)nn4ccn23)cc1`: the RP-LC retention time came out at 973 s.

In turn, `CN1C(=O)C(C)(C(=O)Nc2ccccc2Cl)Oc2cccnc21` (stereo not given) returned an RP-LC retention time of 854 s.

In turn, `O=C1NCCCn2cc(S(=O)(=O)NCc3ccc(F)cc3Cl)cc21` had an RP-LC retention time of 686 s.

`CC1CCN(C(=O)Cn2c(=O)n(-c3ccc(F)cc3)c3ncccc32)CC1`: the RP-LC retention time amounted to 834 s.

Regarding `CN(C)C(CNC(=O)C1(c2ccccc2)CCOCC1)c1cn(C)c2ccccc12` (stereo not given), the RP-LC retention time amounted to 588 s.

With `CC(C)N1CCN(Cc2ccc(C(=O)NCc3ccc(C(F)(F)F)cc3)cc2)C(=O)C1=O`, the RP-LC retention time is 741 s.

Consider `CCOc1ccccc1-n1ccn(Cc2nc(-c3ccc(Cl)cc3)no2)c(=O)c1=O`, for which the RP-LC retention time was 938 s.

In turn, `O=C(NCC(c1ccc2c(c1)OCO2)N1CCOCC1)C(=O)Nc1ccc(F)cc1F` (stereo not given) came in with an RP-LC retention time of 675 s.

As for `CCCN(CC1CCOC1)C(=O)Nc1c(F)cccc1F` (stereo not given), the RP-LC retention time was determined as 731 s.

`Cc1cccc(N2C(=O)CN(S(C)(=O)=O)CC2(C)C(=O)NC2CCCCCCC2)c1C` (stereo not given): the RP-LC retention time stood at 951 s.

`Cc1nc(-c2ccccc2)nc2c1CCC(=O)N2Cc1cccnc1` had an RP-LC retention time of 673 s.

The compound `COC(=O)c1c(-c2cccc(Cl)c2)noc1NCc1ccccn1` yielded an RP-LC retention time of 897 s.

As to `CC1=NS(=O)(=O)N(Cc2ccccc2)C=C1C(=O)OCc1ccc(F)c(F)c1`, the RP-LC retention time was found to be 1100 s.

As for `Cc1ccc(-c2cn(CC(=O)N3CCN(c4cccc(C)c4)CC3)c(=O)o2)cc1`, the RP-LC retention time was found to be 1020 s.

In turn, `CC(C)Cn1cc(CCNC(=O)Nc2ccc(Br)cc2)c2cccnc21` yielded an RP-LC retention time of 932 s.

In turn, `O=C(C1CC(=O)N(C2CCCCCC2)C1)N1CCCN(c2ccc(=O)n(-c3ccccc3)n2)CC1` (stereo not given) returned an RP-LC retention time of 740 s.

Compound `COC(=O)C1CN(c2ccc(OC)cc2)N=C1C(C)=O` (stereo not given) had an RP-LC retention time of 850 s.

Compound `COc1ccc(C(O)Cn2ccn3nc(-c4ccc(C(C)C)cc4)cc3c2=O)cc1` (stereo not given) had an RP-LC retention time of 1060 s.

As to `Nc1cc(C2CCN(S(=O)(=O)c3cccc(F)c3)CC2)no1`, the RP-LC retention time came to 755 s.

Take `COCCNC(=O)c1c2c(cn(-c3ccc(Cl)cc3)c1=O)C(=O)CC(C)(C)C2`: the RP-LC retention time was 856 s.

Take `CCCOc1ccc(C(=O)Nc2cnn(CC)c(=O)c2N2CCOCC2)cc1`: the RP-LC retention time was found to be 954 s.

In the case of `CCn1ncc(N2CCCC(CC(=O)N3CCC4(CC3)OCCO4)C2)cc1=O` (stereo not given), the RP-LC retention time was 646 s.

With `COc1ccc(NC(C)=O)cc1NC(=O)C1CC(=O)N(c2n[nH]c3cccc(F)c23)C1` (stereo not given), the RP-LC retention time is 634 s.

In turn, `Cc1noc(-c2ccc(OC3CN(C(=O)NC(C)C)C3)cc2)n1` displayed an RP-LC retention time of 730 s.

As to `CCn1cc(-c2nc(C(=O)Nc3ccc(Cl)cc3)cs2)c2cccnc21`, the RP-LC retention time was 1330 s.

Turning to `CCOc1ccccc1-c1noc(Cn2cnc3c(oc4ccccc43)c2=O)n1`, the RP-LC retention time is 914 s.

For the compound `O=C(COc1cc(O)c2c(=O)c3ccccc3oc2c1)c1ccc(Br)cc1`, the RP-LC retention time worked out at 1280 s.

Compound `O=C(C1=CCN(Cc2cccc(F)c2)CC1)N1CCN(c2ccccc2)CC1` returned an RP-LC retention time of 642 s.

As for `O=C(Cn1nc2ccc(C(=O)NCc3ccccc3)cn2c1=O)NCCC1=CCCCC1`, the RP-LC retention time amounted to 811 s.

`COc1ccc(NC(=O)CCC2CCCN(c3cc(NC4CC4)ncn3)C2)cc1OC` (stereo not given) came in with an RP-LC retention time of 645 s.

Source of the values: the METLIN SMRT retention time set (Domingo-Almenara et al. 2019).
